Laboratory results taken from patent publication US12605350B2, “Composition for preventing, ameliorating, or treating disease caused by nitration of tyrosine in proteins comprising tyrosine as effective component” (INDUSTRY-ACADEMIC COOPERATION FOUNDATION GYEONGSANG …, priority 2020, dated 2026).

Key:
[1] = system: high-fat diet mouse model of type 2 diabetes; assay: ROS/RNS amount in plasma, high-fat diet model; assay type: in vivo; details: HFD+L-Tyr vs HFD
Method: Twenty-seven C57BL/6 male mice (3-week old) were acclimated to the breeding condition for 1 week. […] Blood glucose was measured every week.
Mouse was anesthetized with avertin, and blood was collected from a heart. After the reaction with EDTA in a vacucontainer, the blood was centrifuged for 15 minutes at 1,500×g, 4° C. to separate plasma. According to heart perfusion with PBS and 4% paraformaldehyde (PFA), tissue fixation was carried out. Then, each tissue was harvested and stored in PFA.
After 3-fold dilution of the plasma in PBS, concentration of reactive oxygen/reactive nitrogen (ROS/RNS) in plasma was measured using Oxiselect ROS/RNS assay kit (Cell Biolabs) according to the recommended experimental protocol.

human recombinant MnSOD = target: T1, human recombinant MnSOD (Homo sapiens, UniProt P04179); assay: SOD activity of human recombinant MnSOD treated with peroxynitrite; assay type: biochemical; details: human recombinant MnSOD with peroxynitrite (2.1 mM PN), 10 minutes on ice
T1 sequence (P04179 25-222): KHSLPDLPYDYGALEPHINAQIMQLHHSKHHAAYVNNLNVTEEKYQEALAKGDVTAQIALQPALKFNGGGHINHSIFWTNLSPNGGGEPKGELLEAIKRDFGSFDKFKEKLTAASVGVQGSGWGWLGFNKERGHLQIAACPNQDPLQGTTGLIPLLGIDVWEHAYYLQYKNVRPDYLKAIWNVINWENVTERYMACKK
Method: Peroxynitrite was diluted by 40 times with 0.3 M NaOH, and absorbance at 302 nm was measured. Then, it was quantified by using the molar absorption coefficient of peroxynitrite) (ε302=1670 M^−1 cm^−1).
For the measurement of SOD activity, SOD colorimetric activity kit by ThermoFisher was used. Human recombinant MnSOD within reference SOD range, peptide, and peroxynitrite were admixed with one another, and the reaction was allowed to occur on ice for 10 minutes. To a 96-well plate, 10 μl of reference SOD or the reaction mixture, and 50 μl of a substrate solution provided in the kit were added, and the absorbance at 450 nm was measured. After adding 25μl of xanthine oxidase provided in the kit and allowing the reaction to occur for 20 minutes at room temperature, absorbance at 450 nm was measured. By using the data obtained by subtracting the first-measured absorbance from the second-measured absorbance, SOD activity was obtained.

[2] = system: chronic immobilization stress group (STR); assay: ROS/RNS in plasma and PFC, chronic immobilization stress; assay type: in vivo, mouse; details: tyrosine diet (181.2 mg/kg) compared to normal diet
Method: Each of the blood and PFC sample was obtained from a mouse anesthetized with CO2 gas. Specifically, mouse blood was collected between 9 AM and 11 AM and stored in a K3EDTA-coated vacuum container. Plasma was obtained by centrifuge for 10 minutes at 4° C., 500×g. PFC sample was weighed first, and, after lysis of the tissues by using Bullet homogenizer, subjected to centrifuge for 20 minutes at 4° C., 12,000 rpm. Thus-obtained plasma and tissue lysate were kept at −80° C. until use. After that, the animal was sacrificed, and a change in corticosterone amount in plasma was examined. ROS/RNS in plasma and PFC was also examined. The corticosterone amount was examined using an ELISA kit (Cayman) by following the manufacturer's protocol, and ROS/RNS was also examined using an ROS/RNS assay kit (Cell Biolabs, San Diego, CA, USA) by following the manufacturer's protocol. The animal models were divided into two groups (i.e., normal group and stress group). The animal of stress group was individually brought by force to a restrainer for 2 hours every day (i.e., between 2 PM and 4 PM) so that it was applied with chronic immobilization stress for 15 days. Change in bodyweight and food intake amount were measured every other day. The normal group and stress group were divided again into a normal diet group and a tyrosine-supplemented diet group (181.2 mg/kg), and then fed.

[3] = system: mouse model of chronic immobilization stress; assay: object recognition test (ORT); assay type: in vivo; details: D-Tyr-containing diet (181 mg D-Tyr/kg AIN-93G), chronic stress 14 days
Method: Twenty-eight C57BL/6 male mice (7-week old) were divided into two groups, each group provided for 1 week with a normal diet or D-tyrosine (D-Tyr)-containing diet (181 mg D-Tyr/kg AIN-93G).
Once the animals become 8-week old, they were applied with chronic immobilization stress (CIS) under light condition of 200 lux, 2 hours per day for 2 weeks. The animals were divided into the control group (CTL), D-Tyr diet control group (CTL+D-Tyr), chronic stress group (STR), and D-Tyr diet chronic stress group (STR+D-Tyr), in which each group consists of 7 animals.
Upon the completion of the CIS for 2 weeks, a cognitive function test was carried out. To compare the cognitive function between the group provided with D-Tyr-containing diet over the entire test period including habituation period and normal feed diet group, an object recognition test (ORT) and an object location recognition test (OLT) for testing long-term memory skills were carried out.
ORT: The test consists of three stages, i.e., habituation, familiarization, and test. The animals were habituated in a test box, 10 minutes per day for 2 days. At the familiarization stage on Day 3, they were allowed to explore two identical objects for 10 minutes. […] The object recognition function index (i.e., discrimination index: DI) was calculated based on the following formula (3). […]

[4] = system: mouse model of stroke using endothelin-1; assay: brain infarction (cresyl violet staining) in endothelin-1 stroke model; assay type: in vivo; details: endothelin-1 (2 μg) to cerebral motor cortex, tyrosine 900 mg/kg (feed weight)
Method: To de-ionized water, endothelin-1 was added (2 μg/μl), and, after vigorous vortexing, completely dissolved by ultrasonication at 4° C. for about 10 minutes.
The mouse was anesthetized by intraperitoneal injection of avertin as an anesthetic (0.5 ml/25 g of mouse bodyweight). Thereafter, endothelin-1 was injected (2 μg) to the cerebral motor cortex area (with bregma at the center, AP 1.5 mm, ML-1.5 mm, and DV 1.8 mm) by stereotaxic surgery. The injection was made at speed of 0.3 μl per minute. The needle was left for about 5 minutes after completing the injection so that endothelin-1 can be fully absorbed in animal tissues. After suturing the skin, the animal was allowed to recover in the original cage.
Perfusion with PBS and PFA was carried out, via animal heart and the brain was removed and post-fixed in PFA for 15 hours or longer. After washing 3 times for 10 minutes with PBS, brain tissue specimen with thickness of 40 μm was obtained using a vibratome. Then, four specimens collected from the area injected with endothelin-1 were fixed on a silane-coated glass slide. […] The stained specimen sample was observed under an optical microscope, and, with the stored image, the area showing brain infarction was calculated by using Image J analysis program.

Structure (SMILES)	plasma ROS/RNS level [1]	MnSOD (SOD) activity (human recombinant MnSOD)	ROS/RNS in PFC tissues [2]	ROS/RNS in plasma [2]	plasma ROS/RNS level ([1]; listed as Tyr)	ORT (object recognition function index, DI) [3]	infarct volume [4]	MnSOD (SOD) activity (human recombinant MnSOD; listed as Tyr)
N[C@@H](Cc1ccc(O)cc1)C(=O)O [L-tyrosine]	statistically significant decrease in plasma ROS/RNS level	higher MnSOD activity						
N[C@@H](Cc1ccc(O)cc1)C(=O)O [tyrosine]			statistically significant decrease in ROS/RNS	statistically significant decrease in ROS/RNS	statistically significant decrease in tissue weight and ROS/RNS amount in plasma	no statistically significant difference	infarct volume is reduced	SOD activity can be maintained
